Results reported in patent publication US11547842B2, “Methods for cancer treatment” (The Board of Trustees of the Leland Stanford Junior …, priority 2013, dated 2023).
Where two headings read alike, the source gives them in different places.

Key:
[1] = test system: mycosis fungoides; assay: Therapy history of patient 3 before SD-101 (clinical response, tolerability)
[2] = test system: mycosis fungoides; settings: human, in vivo

Row | Compound | reason the therapy was stopped (toxicity) [1] | response to therapy ([1]; Zolinza with 12 Gy TSEBT, Targretin 300 mg daily, SGN-35 clinical trial) | reason the therapy was stopped (toxicity) [2]
1 | C=C(c1ccc(C(=O)O)cc1)c1cc2c(cc1C)C(C)(C)CCC2(C)C [Targretin] | hypertriglyceridemia | partial response in the skin | 
2 | SGN-35: agent of the SGN-35 clinical trial in which patient 3 participated |  |  | too much toxicity
